Earlier results on 24 compounds are cited in paper PMC7604311, “Caprine Bactenecins as Promising Tools for Developing New Antimicrobial and Antitumor Drugs” (Frontiers in Cellular and Infection Microbiology, 2020).

Set-up in all cases: key to Susceptibility category: R – resistant; I – intermediate; S – susceptible
Common to all, as to conditions: initial susceptibility testing of the clinical isolate; ref supplying institutions; cited from earlier work

The test system of data set [1] is P. aeruginosa MDR 522/17.
Data set [2] relates to K. pneumoniae ESBL 344/17.
Data set [3] deals with S. aureus 1399/17.
For data set [4], the system named is A. baumannii 7226/16. An excerpt: page 1: Supplementary Material Supplementary Table 1. Susceptibility profiles of tested clinical isolates of bacteria. Gram-negative: Gram-positive: antibiotic E. coli A. baumannii P. aeruginosa K. pneumoniae antibiotic S. aureus ESBL 521/17 7226/16 MDR 522/17 ESBL 344/17 1399/17 AMP* R [≥32] R [≥32 ] R [≥32 ] R [≥32] AMP* R [≥32 ] AMC R [16] - - S [≤2] AMC - CTX R [≥64] - - S [≤1] AMX - CAZ R [≥64] - R [≥64] S [≤1] AZM R [≥4] FEP R [≥64] - R [≥64] S [≤1] VAN S [≤2] ATM R [≥64] - - S [≤1] DOX I [2] IPM S [≤1] R [≥16] I [8] S [≤1] CLI I [2] MEM S [≤0.25 ] R [≥32 ] R [≥16] S [≤0.25] MEM I [4] AM ...

The subject of data set [5] is E. coli ESBL 521/17.

Regarding `NCC[C@H](O)C(=O)N[C@@H]1C[C@H](N)[C@@H](O[C@H]2O[C@H](CN)[C@@H](O)[C@H](O)[C@H]2O)[C@H](O)[C@H]1O[C@H]1O[C@H](CO)[C@@H](O)[C@H](N)[C@H]1O` [AMK, amikacin], the MIC of antibiotic in data set [1] is 4 µg/mL; in data set [2], not above 2 µg/mL; in data set [3], not below 64 µg/mL; in data set [4] it was 8 µg/mL; in data set [5] it was 16 µg/mL. Further, the Susceptibility category entry is “I” in data set [1]; “S” in data set [2]; “R” in data set [3]; “I” in data set [4]; “I” in data set [5].
For the compound `CC1(C)S[C@@H]2[C@H](NC(=O)[C@H](N)c3ccccc3)C(=O)N2[C@H]1C(=O)O` [AMP*, ampicillin], the MIC of antibiotic in data set [1], in data set [2], in data set [3], in data set [4] and in data set [5] was not below 32 µg/mL throughout. The Susceptibility category result in data set [1], in data set [2], in data set [3], in data set [4] and in data set [5] was “R” throughout.
As to `C[C@H]1[C@H](NC(=O)/C(=N\OC(C)(C)C(=O)O)c2csc(N)n2)C(=O)N1S(=O)(=O)O` [ATM, aztreonam], the figures for the MIC of antibiotic in data set [2] and in data set [5] were not above 1 µg/mL and not below 64 µg/mL, respectively. The Susceptibility category entry in data set [2] is “S”; in data set [5], “R”.
As for `CC[C@H]1OC(=O)[C@H](C)[C@@H](O[C@H]2C[C@@](C)(OC)[C@@H](O)[C@H](C)O2)[C@H](C)[C@@H](O[C@@H]2O[C@H](C)C[C@H](N(C)C)[C@H]2O)[C@](C)(O)C[C@@H](C)CN(C)[C@H](C)[C@@H](O)[C@]1(C)O` [AZM, azithromycin], in data set [3], the MIC of antibiotic is not below 4 µg/mL and the Susceptibility category entry is “R”.
`CC(C)(O/N=C(\C(=O)N[C@@H]1C(=O)N2C(C(=O)[O-])=C(C[n+]3ccccc3)CS[C@H]12)c1csc(N)n1)C(=O)O` [CAZ, ceftazidime]: the MIC of antibiotic in data set [1] was not below 64 µg/mL; in data set [2], not above 1 µg/mL; in data set [5], not below 64 µg/mL. The Susceptibility category result in data set [1] is “R”; in data set [2], “S”; in data set [5] it was “R”.
Take `CCC[C@@H]1C[C@@H](C(=O)N[C@@H]([C@H]2O[C@H](SC)[C@H](O)[C@@H](O)[C@H]2O)[C@H](C)Cl)N(C)C1` [CLI, clindamycin]: in data set [3], the MIC of antibiotic is 2 µg/mL and the Susceptibility category entry is “I”.
In the case of `CO/N=C(\C(=O)N[C@@H]1C(=O)N2C(C(=O)O)=C(COC(C)=O)CS[C@H]12)c1csc(N)n1` [CTX, cefotaxime], the MIC of antibiotic in data set [2] was not above 1 µg/mL; in data set [5] it was not below 64 µg/mL. Besides, the Susceptibility category entry in data set [2] is on record as “S”; in data set [5], “R”.
Consider `C[C@H]1c2cccc(O)c2C(=O)C2=C(O)[C@]3(O)C(=O)C(C(N)=O)=C(O)[C@@H](N(C)C)[C@@H]3[C@@H](O)[C@@H]21` [DOX, doxycycline], for which, in data set [3], the MIC of antibiotic is 2 µg/mL and the Susceptibility category entry is given as “I”.
Consider `CC[C@H]1OC(=O)[C@H](C)[C@@H](O[C@H]2C[C@@](C)(OC)[C@@H](O)[C@H](C)O2)[C@H](C)[C@@H](O[C@@H]2O[C@H](C)C[C@H](N(C)C)[C@H]2O)[C@](C)(O)C[C@@H](C)C(=O)[C@H](C)[C@@H](O)[C@]1(C)O` [ERY, erythromycin], for which the MIC of antibiotic in data set [1], in data set [2], in data set [3], in data set [4] and in data set [5] was not below 32 µg/mL in each case. Besides, the Susceptibility category result in data set [1], in data set [2], in data set [3], in data set [4] and in data set [5] was “R” each time.
Consider `CO/N=C(\C(=O)N[C@@H]1C(=O)N2C(C(=O)[O-])=C(C[N+]3(C)CCCC3)CS[C@H]12)c1csc(N)n1` [FEP, cefepime], for which the MIC of antibiotic in data set [1] was not below 64 µg/mL; in data set [2], not above 1 µg/mL; in data set [5], not below 64 µg/mL. The results for the Susceptibility category entry in data set [1], in data set [2] and in data set [5] were “R”, “S” and “R”, respectively.
On to `C[C@@H]1O[C@@H]1P(=O)(O)O` [FOF, fosfomycin], for which, in data set [2], the MIC of antibiotic was not above 16 µg/mL and the Susceptibility category entry is reported as “S”. For the same compound, in data set [5], the MIC of antibiotic was not above 16 µg/mL and the Susceptibility category entry is on record as “S”.
As to `C[C@@H](O)[C@H]1C(=O)N2C(C(=O)O)=C(SCCN=CN)C[C@H]12` [IPM, imipenem], the MIC of antibiotic is 8 µg/mL in data set [1], not above 1 µg/mL in data set [2], not below 16 µg/mL in data set [4] and not above 1 µg/mL in data set [5]. Besides, the Susceptibility category result is “I” in data set [1], “S” in data set [2], “R” in data set [4] and “S” in data set [5].
`C[C@H]1COc2c(N3CCN(C)CC3)c(F)cc3c(=O)c(C(=O)O)cn1c23` [LVX, levofloxacin]: in data set [3], the MIC of antibiotic is not above 1 µg/mL and the Susceptibility category entry was “S”.
In the case of `CCN[C@@H]1C[C@H](N)[C@@H](O[C@H]2OC(CN)=CC[C@H]2N)[C@H](O)[C@H]1O[C@H]1OC[C@](C)(O)[C@H](NC)[C@H]1O` [NET, netilmicin], the MIC of antibiotic in data set [1] is not below 32 µg/mL; in data set [2], not above 1 µg/mL; in data set [5], 8 µg/mL. For the same compound, the results for the Susceptibility category result in data set [1], in data set [2] and in data set [5] were “R”, “S” and “R”, respectively.
Consider `O=C1CN(/N=C/c2ccc([N+](=O)[O-])o2)C(=O)N1` [NIT, nitrofurantoin], for which, in data set [5], the MIC of antibiotic is 128 µg/mL and the Susceptibility category entry is “R”.
For `CC1COc2c(N3CCN(C)CC3)c(F)cc3c(=O)c(C(=O)O)cn1c23` (stereo not shown) [OFL, ofloxacin], in data set [3], the MIC of antibiotic was not below 32 µg/mL and the Susceptibility category entry is “R”.
For `Cc1onc(-c2ccccc2)c1C(=O)N[C@@H]1C(=O)N2[C@@H]1SC(C)(C)[C@@H]2C(=O)O` [OX, oxacillin], in data set [3], the MIC of antibiotic was not below 32 µg/mL and the Susceptibility category result is “R”.
For the compound `CC[C@H]1OC(=O)[C@H](C)[C@@H](O[C@H]2C[C@@](C)(OC)[C@@H](O)[C@H](C)O2)[C@H](C)[C@@H](O[C@@H]2O[C@H](C)C[C@H](N(C)C)[C@H]2O)[C@](C)(O)C[C@@H](C)/C(=N\OCOCCOC)[C@H](C)[C@@H](O)[C@]1(C)O` [RXM, roxithromycin], in data set [3], the MIC of antibiotic was 2 µg/mL and the Susceptibility category result was “I”.
For `CN(C)c1cc(NC(=O)CNC(C)(C)C)c(O)c2c1C[C@H]1C[C@H]3[C@H](N(C)C)C(O)=C(C(N)=O)C(=O)[C@@]3(O)C(O)=C1C2=O` [TGC, tigecycline], in data set [4], the MIC of antibiotic was 4 µg/mL and the Susceptibility category result is listed as “I”.
For `CN[C@H](CC(C)C)C(=O)N[C@H]1C(=O)N[C@@H](CC(N)=O)C(=O)N[C@H]2C(=O)N[C@H]3C(=O)N[C@H](C(=O)N[C@H](C(=O)O)c4cc(O)cc(O)c4-c4cc3ccc4O)[C@H](O)c3ccc(c(Cl)c3)Oc3cc2cc(c3O[C@@H]2O[C@H](CO)[C@@H](O)[C@H](O)[C@H]2O[C@H]2C[C@](C)(N)[C@H](O)[C@H](C)O2)Oc2ccc(cc2Cl)[C@H]1O` [VAN, vancomycin], in data set [3], the MIC of antibiotic was not above 2 µg/mL and the Susceptibility category entry is on record as “S”.
Take amoxicillin–clavulanic acid [AMC]: the MIC of antibiotic was not above 2 µg/mL in data set [2] and 16 µg/mL in data set [5]. Besides, the Susceptibility category entry is “S” in data set [2] and “R” in data set [5].
With ampicillin-sulbactam [SAM], in data set [4], the MIC of antibiotic was 16 µg/mL and the Susceptibility category entry is given as “I”.
Consider colistin [CST], for which the MIC of antibiotic in data set [1] is not below 16 µg/mL; in data set [2] it was not above 0.5 µg/mL; in data set [5] it was not above 0.5 µg/mL. For the same compound, the values for the Susceptibility category result in data set [1], in data set [2] and in data set [5] were “R”, “S” and “S”, respectively.
For trimethoprim–sulfamethoxazole [SXT], the MIC of antibiotic in data set [2] is not above 20 µg/mL; in data set [4] it was not below 320 µg/mL; in data set [5], not below 320 µg/mL. Moreover, the figures for the Susceptibility category result in data set [2], in data set [4] and in data set [5] were “S”, “R” and “R”, respectively.
